EP2487185A1, “Hexapeptide with improved activity in the repair of cellular DNA of dermal cells” (Clinuvel Pharmaceuticals Limited, priority 2011, dated 2012)
Non-standard residues stand in square brackets, D forms with d. Nle = CCCC[C@H](N)C(=O)O

Legend:
Assay type in all cases: cell-based, human
melanocytes strain 105c = experiment: cAMP levels (125I radioimmunoassay), dose-response; settings: 45 min, 0.1 mM IBMX
Experimental: (§1) Dose-response experiments were carried out on three melanocytic strains, namely strains 1513c, 1505b and 105c melanocytes were treated with 1 pM-10 nM CUV9900 or NDP-MSH, or with 0.1-10 nM MSH for 45 minutes in the presence of 0.1 mM isobutyl methylxanthine (IBMX). The results obtained from strain 1513c are shown in Fig. 3, the results obtained from strain 1505b are shown in Fig. 5a and the results obtained from strain 105c are shown in Fig. 5b. The strains 1505b and 1513c were obtained from the same human adult while the strain 105c was obtained from another human adult. Cyclic AMP is the second messenger for the melanocortin-1 receptor, and assessment is usually performed indicating cellular activity reflective of melanogenesis. Cyclic AMP levels were determined using ^125I-labeled radioimmunoassay kit (Perkin Elmer, Waltham, MA), in human melanocytes that were treated with 0 (control), 0.1-10.0 nM α-MSH, or 0.001-10 nM NDP-MSH or 0.001-10.0 nM CUV 9900 for 45 min. in the presence of 0.1 mM IBMX, a phosphodiesterase inhibitor to prevent cAMP degradation. Triplicate wells were included in each group, and duplicate samples from each well were assayed for cAMP levels. Each data point is the mean percent of control of 6 determinations/group ±S.E.

melanocytes strain 1505b = experiment: cAMP levels (125I radioimmunoassay), dose-response; settings: at 1 nM, 45 min, 0.1 mM IBMX
Experimental: as §1

melanocyte strain 1505b = experiment: Tyrosinase activity, dose-response, 6 days treatment
Experimental: Dose-response experiments were carried out on another adult strain 102b which is shown in Fig. 6 and on the strain 1505b which is a melanocyte strain: melanocytes were treated with 0.001-10 nM CUV9990 or NDP-MSH, or 0.1-10 nM MSH for a total of 6 days, with the culture medium changed and fresh peptide added every other day. Cell numbers as well as tyrosinase activity were then determined. Tyrosinase activity was calculated first at activity/10^6 cells, and then as % of control. Twenty-four hours prior the end of the experiment, melanocytes received ^3H-tyrosinase (0.7 µCi/ml medium). The conditioned medium from each dish was collected to be assayed for tyrosinase activity, and the cell numbers were determined using a Coulter Counter. Triplicate dishes were included in each group, and duplicate samples from each dish were assayed for tyrosinase activity. Each data point is the mean percent of control of 6 determinations/group ±S.E.

strains 1505b and 1513c [1] = experiment: Tyrosinase activity as a measure of stability, overall
Experimental: (§2) With continued reference to Figs. 7, 8 and 9, to determine the stability of CUV9900 versus that of NDP-MSH and α-MSH, melanocytes were treated with 1 nM of each peptide, namely with CUV9900, NDP-MSH and α-MSH, for a total of 6 days, or with 1 nM peptides that were incubated for 5 hours at 37 °C prior to addition to the cultures, every other day, for a total of 6 days. Tyrosinase activity was measured at the end of treatment. In the experiments, cell number represents the mean percent of control of 3 determinations/ group ±SE, and tyrosinase activity data represent the mean percent of control of 6 determinations ±S.E. It should be noted that for the sake of reproducibility the experiment of strain 1513c of Fig. 9 was performed once more 6 months later than the experiment of Fig. 7.
Melanocytes were treated for 3 days with the designated concentrations of CUV9900, NDP-MSH, or MSH, then maintained in absence of peptides for 4 days. Tyrosinase activity was determined 3 days after treatment.

strains 1505b and 1513c [2] = experiment: Cell proliferation as a measure of stability, overall; settings: all experiments on both strains 1505b and 1513c
Experimental: as §2
Peptides were incubated at 37 degrees Celsius for 5 hours and then split into groups. Cell proliferation was a measure of stability, whereby the experiments on strain 1513c were divided in period 1 and 2 under standard conditions.

melanocytic strain 10.3c = experiment: UV-induced generation of hydrogen peroxide (luminol luminescence); settings: 1 nM, 105 mJ/cm^2 UV, 0, 30 and 45 minutes after UV
From the text: With reference to Figs. 10 and 11, melanocytes were irradiated with a bank of FS 20 lamps, with 75% emission in the UVB, and 25% emission in the UVA spectra, with peak emission at 313 nm wavelength. Any emission of UVC rays from the UV source (FS 20 lamps) was blocked by Kodacel filter. Prior to irradiation, the culture medium was replaced by PBS, which was removed after UV exposure, and fresh medium added.
Melanocytes were irradiated with 105 mJ/cm^2 UV, and treated immediately while in PBS with 0, 1 nM α-MSH or 1 nM CUV9900. Generation of hydrogen peroxide, representative of reactive oxygen species (ROS), was determined by measuring the luminescence of luminol at 0, 30, and 45 min after UV exposure. Triplicate dishes were included in each group, and duplicate samples from each dish were used for measurement of hydrogen peroxide at each time point. Each data point represents the mean of 6 determinations/group ±S.E.

[3] = tested on: lightly pigmented strain 1563c and strain 102b; experiment: Ultrastructural visualization of DOPA-stained HM (electron microscopy); settings: 0.1 nM or 1 nM CUV9900 or 1 nM MSH; strains 1563c and 102b
Experimental: With reference to Figs. 14 and 15, two melanocytic strains, a lightly pigmented strain 1563c of Fig. 14 and strain 102b of Fig. 15 were plated in 4-well chamber slides and treated […] with either 0.1 nM or 1 nM CUV9900 or 1 nM MSH for a total of 6 days. Cells were processed for electron microscopy in the presence or absence of histochemical reaction with DOPA. Microtome sections were analyzed in a JEOL JEM-1230 transmission electron microscope and photomicrographs (15,000 X) of the perinuclear area and dendrites were taken for each experimental group.

effect on tyrosinase activity, comparison with NDP-MSH (melanocyte strain 1505b): equivalent to that of NDP-MSH
minimal effective dose (tyrosinase activity) (melanocyte strain 1505b; 6 days treatment): 1 pM
superior tyrosinase activity in comparison to MSH (strains 1505b and 1513c [1]): 42.5%
superior tyrosinase activity in comparison to NDP-MSH (strains 1505b and 1513c [1]): 19.8%
Substance: Ac-Nle-Glu His-D-Phe-Arg-Trp-NH2 (Ac-[Nle]EH[dF]RW-NH2; SMILES CCCC[C@H](NC(C)=O)C(=O)N[C@@H](CCC(=O)O)C(=O)N[C@@H](Cc1c[nH]cn1)C(=O)N[C@H](Cc1ccccc1)C(=O)N[C@@H](CCCNC(=N)N)C(=O)N[C@@H](Cc1c[nH]c2ccccc12)C(N)=O) [CUV9900, hexapeptide, alpha-MSH analogue]
elevation of cAMP, comparison with NDP (melanocytes strain 105c; 0.01 nM and 0.1 nM): less elevation of cAMP in comparison to 0.01 nM and 0.1 nM NDP
cAMP, comparison with MSH (melanocytes strain 105c; 0.1 nM, 1 nM and 10 nM): significantly higher than 0.1 nM, 1 nM and 10 nM MSH
cAMP, potency comparison (melanocytes strain 1505b): more potent than MSH
more cell proliferation and stability than MSH (strains 1505b and 1513c [2]): 2.9%
more cell proliferation and stability than NDP-MSH (strains 1505b and 1513c [2]): 4.0%
UV-induced hydrogen peroxide generation (melanocytic strain 10.3c): significant reduction of UV-induced hydrogen peroxide generation
melanosomes, electron microscopy [3]: increased mature (stage IV) melanosomes in the perinuclear area and more so in dendrites
